The text below walks through data of US20030049712A1, “Method of detecting protease activity in a cell” (priority 2001, published 2003).

In the assay the test system is caspase-3. The assay is described as follows: Caspase3 assay using an NES-protease cleavage-NLS fusion protein (EYFP translocation). Type of assay: cell-based. To be noted: 3T3 cells transiently transfected with pCaspase3-sensor Vector; staurosporin 700 nM; detected 4 hours post induction; untreated cells: EYFP in the cytoplasm. The text has this:
A construct was generated that includes a nucleotide sequence encoding a fusion protein including, in order from amino to carboxyl terminus, an NES of MAP-kinase-kinase (NLVDLQKKLEELELDEQQ; SEQ ID NO: 23); a recognition site for caspase-3 (DEVD; SEQ ID NO: 22) bordered by a stretch of amino acids found in the cleavage site of the endogenous caspase-3 substrate poly (ADP-ribose) polymerase (PARP; Nicholson et al. (1995) Nature 376:37-43; and Tewari et al. (1995) Cell 81:801-809), such that the cleavage recognition site has the sequence KRKGDEVDGVDF (SEQ ID NO: 24); an enhanced yellow fluorescent protein (EYFP); and a three tandem repeat of the NLS from simian virus large T antigen. In this construct, the NES is dominant over the NLS.
The construct was transfected into mammalian cells. Specifically, 3T3 cells were grown on coverslips, transiently transfected with the pCaspase3-sensor Vector which is encodes the above described fusion protein and is further illustrated in Clontechniques (April, 2002), and grown for 24 hours. Apoptosis was induced using staurosporin (700 nM) and caspase-3 activity was detected 4 hours post induction. Cells were fixed with 3% paraformaldehyde and photomicrographs were taken using a Zeiss microscope.

The structures appear in SMILES notation.

Take `CN[C@@H]1C[C@H]2O[C@@](C)([C@@H]1OC)n1c3ccccc3c3c4c(c5c6ccccc6n2c5c31)C(=O)NC4` [staurosporin]: the “caspase-3 activity read out as subcellular location of EYFP” value is on record as “the EYFP was detected in the nucleus”.
